# Measurements as given in ChEMBL document CHEMBL3580597 (J Med Chem, 2015).
# Experiments:
# [1] = biological target: Protein polybromo-1 (Homo sapiens, UniProt Q86U86); test: Binding affinity to biotinylated PB1BR5 (645 to 766 amino acid residues) (unknown origin) expressed in Rosetta2 cells by bio-layer interferometry method
# [2] = biological target: Bromodomain-containing protein 4 (Homo sapiens, UniProt O60885); test: biochemical
# Sequence of Protein polybromo-1 (Q86U86 whole entry, the tested form may be a part): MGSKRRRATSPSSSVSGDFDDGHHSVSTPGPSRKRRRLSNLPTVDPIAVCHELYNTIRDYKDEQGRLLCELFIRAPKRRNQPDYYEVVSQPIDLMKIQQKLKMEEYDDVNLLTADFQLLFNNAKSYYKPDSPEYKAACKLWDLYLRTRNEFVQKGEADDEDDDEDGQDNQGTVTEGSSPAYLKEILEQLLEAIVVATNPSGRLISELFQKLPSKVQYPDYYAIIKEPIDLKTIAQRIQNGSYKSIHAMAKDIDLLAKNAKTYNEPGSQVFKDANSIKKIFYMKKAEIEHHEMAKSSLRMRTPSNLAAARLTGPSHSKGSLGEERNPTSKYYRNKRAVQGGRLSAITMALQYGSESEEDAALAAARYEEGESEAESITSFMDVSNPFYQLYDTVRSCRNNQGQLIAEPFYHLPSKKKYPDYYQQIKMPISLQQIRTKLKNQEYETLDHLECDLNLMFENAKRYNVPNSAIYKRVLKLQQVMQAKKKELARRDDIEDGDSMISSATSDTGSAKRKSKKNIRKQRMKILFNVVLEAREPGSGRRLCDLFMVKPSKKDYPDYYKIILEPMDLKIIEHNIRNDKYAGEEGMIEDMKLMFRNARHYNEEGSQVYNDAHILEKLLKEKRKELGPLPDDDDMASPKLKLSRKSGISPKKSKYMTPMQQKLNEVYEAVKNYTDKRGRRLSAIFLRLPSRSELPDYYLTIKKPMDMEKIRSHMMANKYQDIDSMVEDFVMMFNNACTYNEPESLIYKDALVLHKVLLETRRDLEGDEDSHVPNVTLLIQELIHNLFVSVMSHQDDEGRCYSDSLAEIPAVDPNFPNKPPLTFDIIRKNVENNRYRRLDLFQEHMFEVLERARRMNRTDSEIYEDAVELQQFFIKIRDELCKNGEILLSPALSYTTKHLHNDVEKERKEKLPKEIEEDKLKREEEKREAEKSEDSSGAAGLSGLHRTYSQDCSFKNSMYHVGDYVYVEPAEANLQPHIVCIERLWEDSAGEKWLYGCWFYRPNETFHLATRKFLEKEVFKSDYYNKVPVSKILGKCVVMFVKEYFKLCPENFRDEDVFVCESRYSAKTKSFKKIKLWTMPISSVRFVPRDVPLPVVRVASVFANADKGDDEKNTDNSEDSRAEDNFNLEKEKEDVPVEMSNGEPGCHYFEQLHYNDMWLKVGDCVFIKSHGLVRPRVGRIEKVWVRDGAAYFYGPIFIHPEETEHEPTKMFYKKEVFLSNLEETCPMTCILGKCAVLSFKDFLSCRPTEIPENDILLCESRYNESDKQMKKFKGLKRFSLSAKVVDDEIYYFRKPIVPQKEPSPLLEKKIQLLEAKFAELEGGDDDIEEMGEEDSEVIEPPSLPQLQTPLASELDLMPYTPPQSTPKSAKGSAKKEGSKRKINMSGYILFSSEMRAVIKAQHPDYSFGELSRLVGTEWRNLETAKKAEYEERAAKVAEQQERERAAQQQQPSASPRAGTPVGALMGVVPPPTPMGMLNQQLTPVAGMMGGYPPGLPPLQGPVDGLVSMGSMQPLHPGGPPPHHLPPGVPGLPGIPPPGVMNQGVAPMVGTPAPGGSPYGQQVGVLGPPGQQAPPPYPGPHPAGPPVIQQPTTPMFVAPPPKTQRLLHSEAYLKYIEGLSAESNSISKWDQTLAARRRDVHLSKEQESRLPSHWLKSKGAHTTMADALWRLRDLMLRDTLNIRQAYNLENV
smiles,measurement,setting,value
COc1cc2c(cc1-c1c(C)noc1C)[nH]c1ccnc(-c3c(C4CC4)n[nH]c3C)c12,Kd,[1],> 10 µM
same,Kd,[2],0.0446 µM
